Data set [1] in a line: Plasma protein binding (rapid equilibrium dialysis). The class given is in vitro ADME, mice. The note with it: mouse, plasma, mice plasma protein binding (footnote); RED, 10 µg/mL, four hours, 37 °C; read-out: PPB (% Bound) (converted). Background: In equilibrium dialysis only unbound substance equilibrates across the membrane.
For another data set, the system named is plasma protein. The data set is described as above. Type of data set: in vitro ADME, mice.
Data set [2] can be described thus: Metabolic stability against S9 fraction. The note with it: human, liver S9 fraction, against human S9 fraction (footnote), NADPH, 37 °C; read-out: Metabolic Stability t1/2 (converted). Type of data set: in vitro ADME. Here is the method: The metabolic stability of the prodrug was assessed in the mouse liver S9 fraction. Briefly, 5 μg/mL of prodrug was incubated with 1 mg/mL mouse liver S9 fraction supplemented with 1 mg/mL nicotinamide adenine dinucleotide phosphate (NADPH) in Dulbecco’s phosphate-buffered saline at 37 °C. At designated time points (i.e., 0, 0.5, 1, 2 h), 100 μL samples were collected and quenched immediately with 300 μL methanol containing 1 μg/mL internal standard. Samples were vortexed for 30 s and centrifuged at 15,000 rpm for 10 min. Supernatant was assessed by LC/MS.

A further data set concerns HEI-OC1 cells. Put plainly: TACS MTT cell proliferation / metabolic activity assay in HEI-OC1. Type of data set: cell-based, mouse. As to conditions: for Metabolic activity throughout all concentrations: 0.1–100 μM, throughout all concentrations and cell lines; for Proliferative effect vs Qx-70 and untreated cells: HEI-OC1, TACS MTT. Here is the method: (§1) HEI-OC1 cells derived from the mouse OC (kindly provided by Dr. F. Kalinec) were cultured under permissive conditions (33 °C, 10% CO2) as described in [22]. Additionally, we assessed the activity of Qx-derived compounds in the mouse neuroblastoma cell line, Neuro-2A, and the human fibrosarcoma HT-1080 (ATCC, Manassas, VA, USA) following the standard cell culture guidelines provided by the vendor.
(§2) In vitro cell proliferation effects of all ten initial compounds (Figure 1A,B) were tested on HEI-OC1, Neuro-2A and HT-1080 cells by TACS® 3-(4,5-dimethylthiazol-2-yl)-2,5-diphenyltetrazolium bromide (MTT) Cell Proliferation Assay (R&D Systems, Minneapolis, MN, USA, 4890-025-K), following the manufacturer’s protocol. Absorbance was measured with SpectraMax® M Series Multi-Mode Microplate Reader with Soft Max Pro 7.2 GxP Software (Molecular Devices, Sunnyvale, CA, USA), and the average OD in control cells was taken as 100% of viability. Upon selecting the most viable compounds (Qx-294 and Qx-301), we proceeded with in vivo experiments. For zebrafish treatment, animals were incubated for varied times with different concentrations (50, 100, 150, 200, 250, and 300 μg/mL) of Qx-294 or Qx-301 diluted in swimming (E3) media or administered via IP injections. Mice treatment followed the same procedures as described in [18]. Following treatment, animals or tissue samples were incubated in Click-it EdU or Click-it Plus TUNEL kits (Thermo Scientific, Waltham, MA, USA), following the manufacturer’s instructions to label proliferating and apoptotic cells, respectively.

In the next data set the test system is Neuro-2A. Put plainly: TACS MTT cell proliferation / metabolic activity assay in Neuro-2A. The class given is cell-based, mouse. As to conditions: 0.1 to 100 μM. Here is the method: as §1, §2
A further data set deals with mouse auditory function. Put plainly: Distortion product otoacoustic emissions (DPOAE). Type of data set: in vivo, mice (Mus musculus). As to conditions: for Frequencies at which DPOAE threshold improvement was statistically significant: 72 h group, p < 0.05; for Frequencies at which DPOAE threshold improvement was statistically significant / DPOAE thresholds at higher frequencies vs control: Two-Way ANOVA; for DPOAE vs control, 24 h treatment / DPOAE thresholds at higher frequencies vs control: C57BL/6J mice; for DPOAE vs control, 24 h treatment: 24 h post-treatment; for DPOAE thresholds at higher frequencies vs control: p < 0.01. How it is done:
C57BL/6J male and female mice between postnatal day 24 and 30 P-24-30) were randomized into control and experimental groups (9 mice per group per compound), with each experimental group receiving a single intraperitoneal (IP) injection of Qx-294 or Qx-301 at a dose of 300 mg/kg body weight, dissolved in dimethyl sulfoxide (DMSO). Controls consisted of treatment with DMSO alone (vehicle). A total of 90 adult wild-type C57/BL6 mice were used in this study. Based on the analysis, animals were examined at various times following treatment as described below.
Mice from all groups underwent auditory brainstem response (ABR) and distortion product otoacoustic emissions (DPOAEs) tests before the initiation of treatment with either compounds or vehicle, and at 24, 48, and 72 h post-treatment, as described below. After audiometric testing, pre-treatment mice were placed in a warm and clean cage and monitored until they were awake and able to remain upright in a sternal position. Alternatively, post-treatment mice had their cochleae processed for histological examination.
Methods for recording distortion product otoacoustic emissions (DPOAEs) were similar to those previously described. Stimuli for DPOAEs were generated and controlled with modules from TDT. Pure tone frequencies (f1, f2, f2/f1 ratio ¼ 1.25), at equal levels (L1 ¼ L2 ¼ 60 dBSPL), 150 ms duration, were generated with independent sources (TDT RX6 processor) and routed through separate drivers to mix acoustically in the ear canal (via plastic tubing placed securely at the external acoustic meatus). Stimuli were calibrated in a 0.1 mL coupler, which simulates the volume of the mouse ear canal. Stimulus frequencies for the primaries are such that geometric mean (GM ¼ (f1 x f2)0.5) frequencies ranged from 6.0 to 48.5 kHz (at least eight frequencies per octave). Ear canal sound pressure levels were recorded using a low-noise probe microphone (Etymotic ER 10Bþ). The microphone output was amplified and fed into the TDT RX6 processor for digital sampling, spectral averaging, and fast Fourier transform (FFT) processing. The amplitude of f1, f2, and the cubic difference distortion product (2f1–f2) were measured from the FFT waveform. The noise floor was measured from the amplitudes in the fifth and twelfth frequency bins above and below (±60 and 120, resp.) the 2f1-f2 component. For statistical comparison (Two-Way ANOVA), the mean DPOAE amplitude across all tested primary frequency pairs was calculated and compared between treatment and control groups.

This is an account of results in paper PMC12731105, “Design and Synthesis of New Quinoxaline Analogs to Regenerate Sensory Auditory Hair Cells” (Cells, 2025).

`c1ccc2nc(N3CCOCC3)cnc2c1` [Qx-294, 2-(morpholine)-quinoxaline]: the fraction unbound at 4 h, 10 µg/mL in data set [1] was 0.115. Also, in the data set on plasma protein, the “Plasma protein binding” value is “highly protein-bound”. In addition, in data set [2], the half-life at 5 μg/mL is approximately 57 h. In addition, in the data set with HEI-OC1 cells, the “Metabolic activity throughout all concentrations” value was “elevated yet stable metabolic activity”; the “Proliferative effect vs Qx-70 and untreated cells” value was “significant and reproducible proliferative effects greater than those of Qx-70 and the untreated cells”. In addition, the “Proliferative state across all tested concentrations” value in the data set with Neuro-2A was “modest yet active proliferative state”. In the data set with mouse auditory function, the “Frequencies at which DPOAE threshold improvement was statistically significant” value is listed as “above 16 kHz”; the “DPOAE vs control, 24 h treatment” value was “no statistically significant differences”; the “DPOAE thresholds at higher frequencies vs control” value was “significantly lower than those of the control group”.

For the compound `c1ccc2nc(N3CCCC3)cnc2c1` [Qx-301, 2-(pyrrolidine)-quinoxaline], the fraction unbound at 4 h, 10 µg/mL in data set [1] was approximately 0.68. In addition, the half-life at 5 μg/mL in data set [2] is 9.1 ± 8.4 h. In the data set on HEI-OC1 cells, the “Metabolic activity throughout all concentrations” value is “elevated yet stable metabolic activity”; the “Proliferative effect vs Qx-70 and untreated cells” value was “significant and reproducible proliferative effects greater than those of Qx-70 and the untreated cells”. The “Proliferative state across all tested concentrations” value in the data set with Neuro-2A is reported as “modest yet active proliferative state”. Also, in the data set with mouse auditory function, the “Frequencies at which DPOAE threshold improvement was statistically significant” value is recorded as “above 22.6 kHz”; the “DPOAE vs control, 24 h treatment” value is “no statistically significant differences”; the “DPOAE thresholds at higher frequencies vs control” value is on record as “significantly lower than those of the control group”.
